Measured values reported in ChEMBL document CHEMBL6134786, “Design and synthesis of novel 8-(azaindolyl)-benzoazepinones as potent and selective ROCK inhibitors” (RSC Med Chem, 2024).
≈ marks a conversion by molar mass, not a printed value.

How the values were obtained:
[1] = cells; settings: Homo sapiens, Pulmonary Artery Smooth Muscle Cells, read-out: pEC50 (converted)
[2] = Apparent permeability across apical to basolateral side in human Caco-2 cells; type: ADME, cell-based
[3] = Metabolic stability in rat microsomes assessed as half life; type: ADME, Microsome
[4] = Kinetic solubility of the compound in PBS at pH 7.2; type: physicochemical; settings: read-out: Kinetic_solubility

| Structure (SMILES) | EC50 [1] | Papp A→B [2] | half-life [3] | solubility kinetic [4] |
| --- | --- | --- | --- | --- |
| O=C1Cc2cc(-c3cn[nH]c3)ccc2CCN1c1ccccc1 | 0.398 µM | – | – | – |
| Nc1cc(-c2ccc3c(c2)CC(=O)N(c2ccccc2)CC3)ccn1 | 0.316 µM | – | – | – |
| CN1CCN(CCCOc2cccc(N3CCc4ccc(-c5ccnc6[nH]ccc56)cc4CC3=O)c2)CC1 | 0.00501 µM | 5.6 ×10⁻⁶ cm/s | 8.4 min | – |

Other lines, results leading:

| EC50 [1] | Papp A→B [2] | half-life [3] | solubility kinetic [4] | Structure (SMILES) |
| --- | --- | --- | --- | --- |
| 0.0501 µM | – | – | – | O=C1Cc2cc(-c3ncnc4[nH]ccc34)ccc2CCN1c1ccccc1 |
| 0.0316 µM | – | – | – | COc1cccc(N2CCc3ccc(-c4ccnc5[nH]ccc45)cc3CC2=O)c1 |
| 0.0126 µM | 26.9 ×10⁻⁶ cm/s | 18 min | < 5 µM | O=C1Cc2cc(-c3ccnc4[nH]ccc34)ccc2CCN1c1ccccc1 |
| – | – | – | 131 µM (≈ 46.3 µg/mL) | O=C1CCc2ccc(-c3ccnc4[nH]ccc34)cc2CN1c1ccccc1 |
